Assay results taken from patent publication US9085557B2, “Quinolylpiperazino substituted thiolactone compounds and process for the preparation thereof” (Council of Scientific and Industrial Research, priority 2010, dated 2015).
In brackets after ≈: the same amount, converted by molar mass.

Assays:
AML-12 cells = experiment: Cytotoxicity assay (MTT) on cell line AML-12; type: cell-based
Protocol: The study was carried out using AML-12 cells line (ATCC-USA). Cells were grown in Dulbecco's Modified Eagle's Medium (DMEM) containing 10% fetal calf serum (FCS) and supplemented with 100 units/ml penicillin, 100 μg/ml streptomycin, 0.005 mg/ml insulin, 0.005 mg/ml transferrin, 5 ng/ml selenium, and 40 ng/ml dexamethasone, in a humidified atmosphere in 5% CO2 at 37° C., and were sub-cultured at 1:5 ratio once a week.
Cells were plated at a density of 3×10^4 cells/cm^2 and maintained in culture medium for 12 h after trypsinization. Cells were seeded onto 96-well plates and FCS was reduced to 5% for the experiment. Stock solutions of compound 3f were prepared fresh to avoid oxidation. Cells were incubated with the compounds (2-100 μg/ml) for 24 hrs.
After the completion of treatment, the medium was removed and cell viability was evaluated by assaying for the ability of functional mitochondria to catalyze the reduction of 3-(4,5-dimethylthiazol-2-yl)-2,5-diphenyltetrazolium bromide (MTT) to form formazan salt by mitochondrial dehydrogenases, and determined by Elisa reader at 565 nm (Multiskan Spectrum; Thermo Electron Corporation, USA). Percentage cytotoxicity was calculated with respect to the untreated cells.

[1] = system: M. tuberculosis H37Rv (ATCC 27294); experiment: MIC determination by broth dilution against M. tuberculosis H37Rv; type: cell-based, Mycobacterium tuberculosis; settings: for in vitro activity (words): M. tuberculosis H37Rv / sensitive isolates
[2] = system: M. tuberculosis -617 (MDR- strain); experiment: microbe, parasite or virus in culture; type: cell-based, Mycobacterium tuberculosis; settings: for in vitro activity (words): MDR clinical isolates
M. tuberculosis H37Rv = experiment: In vivo efficacy in murine model of M. tuberculosis H37Rv infection; parameters: species or system mice (BALB/c)
Protocol: The Compound 3f used in this study ([…]). The compound 3f was tested in vivo at 25 mg/kg. Rifampicin at 20 mg/kg was also tested as positive control. For in vivo studies compound and rifampicin was dissolved in pure DMSO and formulation was prepared 50% PEG in water for oral administration. The final concentration of DMSO was less than 0.1% v/v.
The institutional animal Ethics committee of the Indian Institute of Integrative Medicine (CSIR, Jammu) approved all experimental protocols with animals and the use of animals. The animals were bred and maintained under standard husbandry conditions; viz. humidity, temperature (25±2° C.). 8-week-old female (BALB/c) mice 20-22 gm by weight were used for the efficacy studies. Animals were allowed 1 week of acclimation before intake into experimental studies. Feed and water were given ad libitum.
Infection of M. tuberculosis:
M. tuberculosis (H37Rv) for infection was grown by the culturing of bacteria from Lowenstein-Jensen slant in Middlebrooke 7H9 medium on a rotary shaker for 10 days at 37° C. […] The mice were sacrificed after week post infection (early control), and bacterial numbers in the lungs were determined by macerating the organs (lung) and plating serial tenfold serial dilution on Middlebrook 7H10 agar plates in triplicates. […]
Eight infected mice were sacrificed from the control group 7 day after the infection (before the initiation of treatment) to obtain the initial CFU load of M. tuberculosis H37Rv at the initiation of treatment. […] Viable bacteria were quantitated by plating 10-fold serial dilutions in duplicates on Middlebrook, 7H10 agar supplemented with 10% OADC (oleic acid albumin dextrose catalase, Becton Dickinson, Sparks, Md.) and incubated at 37° C. in 5% CO2 for 4-6 weeks. CFU per organ sample was counted and expressed as log10 CFU per organ. CFU during in-vivo studies were determined on Middlebrook 7H10 plates supplement with 10% OADC containing Vancomycin 10 μg/ml, Amphoterecin 10 μg/ml, Nalidaxic acid 25 μg/ml. […]

[3] = system: M. tuberculosis XDR-1 (XDR- strain); experiment: microbe, parasite or virus in culture; type: cell-based, Mycobacterium tuberculosis; settings: for in vitro activity (words): XDR clinical isolates

## CC1=C(OCCCCCCCCCCCCN2CCN(c3ccnc4cc(C(F)(F)F)ccc34)CC2)C(C)SC1=O (stereo not drawn) [Compound 3f, 3,5-dimethyl-4-[(12-4-[7-(trifluoromethyl)-4-quinolyl]piperazinododecyl)oxy]-5H-thiophen-2-one]
AML-12 cells
  IC50 (extrapolate), cytotoxicity on AML-12: IC50 > 433 μg/ml (extrapolate)
[1]; listed as Compound 3f
  in vitro activity (words): active
[1]; listed as compound 3f
  in vitro activity (words): exhibits in vitro activity
[1]; M. tuberculosis H37Rv, broth dilution, 3 weeks at 37° C., read visually (no turbidity)
  MIC: 0.5 µg/mL (≈ 0.845 µM)
[2]; M. tuberculosis 617 MDR clinical isolate, broth dilution, 3 weeks
  MIC: 0.5 µg/mL (≈ 0.845 µM)
[2]; listed as Compound 3f
  in vitro activity (words): active
[2]; listed as compound 3f
  in vitro activity (words): exhibits in vitro activity
M. tuberculosis H37Rv; 25 mg/kg oral, 4 weeks
  type of in vivo activity (log CFU in lungs versus early control): bacteriostatic activity
M. tuberculosis H37Rv; BALB/c mice, intranasal infection, treatment from 1 week post infection, PO once daily for 4 weeks, RIF 20 mg/kg, 3f 25 mg/kg
  Log10 CFU/left Lung (mean ± SD): 6.2 ± 0.34 Log10 CFU/left Lung
[3]; M. tuberculosis XDR-1 clinical isolate, broth dilution, 3 weeks
  MIC: 0.5 µg/mL (≈ 0.845 µM)
[3]; listed as Compound 3f
  in vitro activity (words): active
[3]; listed as compound 3f
  in vitro activity (words): exhibits in vitro activity
